{"source": "patent US20100292209A1", "about": "“METHODS FOR IDENTIFYING COMPOUNDS THAT MODULATE NEUROTROPHIC FACTOR SIGNALING” (Massachusetts Institute of Technology, priority 2007, published 2010)", "key": {"PC12-ErbB4-GFP cells [1]": {"test_system": "PC12-ErbB4-GFP cells", "assay": "Nrg1-induced neurite outgrowth, live-cell imaging", "assay_type": "cell-based", "method": "(§1) Average outgrowth per cell was measured after 2 days incubation. C. Cells were pretreated with Iressa or Tarceva at various concentrations for 30 minutes followed by 20 ng/ml Nrg1. Mean outgrowth per cell was measured after 2 days incubation. D. Cells were pretreated with 2 μM Iressa or DMSO for 30 minutes followed by 20 ng/ml Nrg1 or NGF and lysed after 5 minutes. Cell lysates were immunoprecipitated by anti-ErbB4 antibody followed by western blotting with antibodies against phospho-tyrosine and ErbB4. Phosphor-ERK1/2 and total Erk2 levels were determined by direct western blotting with cell lysates.\nC. […] Mean outgrowth per cell was measured after 2 days incubation."}, "ErbB4 [2]": {"molecular_target": "T1, ErbB4 (Homo sapiens, UniProt Q15303)", "T1 construct": "expressed in transfected cells", "T1 sequence (Q15303 26-1292 isoform Q15303-3 limits assumed)": "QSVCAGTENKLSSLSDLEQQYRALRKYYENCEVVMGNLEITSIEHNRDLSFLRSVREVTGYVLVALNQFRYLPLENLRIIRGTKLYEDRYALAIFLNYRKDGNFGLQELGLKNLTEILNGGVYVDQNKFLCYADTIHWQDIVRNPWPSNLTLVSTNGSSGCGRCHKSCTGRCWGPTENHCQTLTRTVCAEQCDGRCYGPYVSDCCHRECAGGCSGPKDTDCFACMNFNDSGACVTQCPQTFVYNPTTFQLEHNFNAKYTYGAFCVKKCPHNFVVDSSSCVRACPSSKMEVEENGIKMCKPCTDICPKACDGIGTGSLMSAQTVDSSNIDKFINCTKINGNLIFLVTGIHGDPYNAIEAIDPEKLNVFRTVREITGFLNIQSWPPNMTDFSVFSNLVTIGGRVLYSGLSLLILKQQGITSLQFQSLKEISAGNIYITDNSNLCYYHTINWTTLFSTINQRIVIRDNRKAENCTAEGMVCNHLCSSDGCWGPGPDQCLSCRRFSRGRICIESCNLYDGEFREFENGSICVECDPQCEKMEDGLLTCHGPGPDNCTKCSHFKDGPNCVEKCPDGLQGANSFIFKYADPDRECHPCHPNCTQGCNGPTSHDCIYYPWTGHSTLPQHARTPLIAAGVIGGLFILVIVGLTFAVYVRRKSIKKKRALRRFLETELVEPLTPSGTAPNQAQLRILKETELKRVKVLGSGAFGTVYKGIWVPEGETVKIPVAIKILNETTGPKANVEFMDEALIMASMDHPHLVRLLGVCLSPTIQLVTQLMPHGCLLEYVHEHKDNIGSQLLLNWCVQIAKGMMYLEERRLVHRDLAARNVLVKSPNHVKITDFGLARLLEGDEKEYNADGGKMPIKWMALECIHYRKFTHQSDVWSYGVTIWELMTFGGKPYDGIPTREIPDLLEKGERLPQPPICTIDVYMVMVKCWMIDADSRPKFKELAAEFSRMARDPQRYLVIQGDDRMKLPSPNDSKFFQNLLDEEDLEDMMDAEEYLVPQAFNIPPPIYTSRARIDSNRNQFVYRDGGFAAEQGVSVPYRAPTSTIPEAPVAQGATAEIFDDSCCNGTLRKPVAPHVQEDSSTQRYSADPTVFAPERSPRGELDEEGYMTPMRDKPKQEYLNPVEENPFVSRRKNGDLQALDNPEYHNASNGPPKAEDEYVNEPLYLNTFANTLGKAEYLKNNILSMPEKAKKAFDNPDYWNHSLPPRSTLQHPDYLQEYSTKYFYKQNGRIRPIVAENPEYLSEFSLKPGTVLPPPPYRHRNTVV", "assay": "Iressa-conjugated agarose (iTrap) affinity capture of ErbB4 from cell lysate", "assay_type": "binding", "conditions": "10 uM free Iressa", "description": "PC12-ErbB4-GFP cells were lysed with modified RIPA buffer at 4° C. for 10 min and the cell lysate was cleared by centrifugation. The cleared lysate (0.40 ml) was tumbled with Iressa (10 μM) or DMSO (1:1000 v/v) as indicated at 4° C. for 30 min before addition of the iTrap resin (10 μA). The resulting mixture was tumbled at 4° C. for 12 hours. The suspension was centrifuged and the supernatant was discarded. The resin was washed with the above modified RIPA buffer (1.0 ml) for four times. The captured proteins were separated by SDS-PAGE. The Western immunoblotting experiment was then performed using anti-ErbB4 antibody.\nAgarose beads (iTrap) conjugated with a derivative of Iressa (Iressa—2, FIG. 6A) were used to examine the affinity of Iressa against ErbB4."}, "ErbB4 [3]": {"molecular_target": "T1, ErbB4", "assay": "Nrg1-induced ErbB4 phosphorylation (immunoprecipitation, western blot)", "assay_type": "cell-based", "conditions": "1 μM Iressa, 20 ng/ml Nrg1, lysed after 5 minutes", "method": "as §1, with “Cells were pretreated with 2 μM Iressa or DMSO for 30 minutes followed by 20 ng/ml Nrg1 or NGF and lysed after 5 minutes.” left out\n(§2) Cells were lysed with RIPA buffer (Pierce Technology, Rockford, Ill.) containing 1 tablet/10 ml protease inhibitor cocktail Complete Mini (Roche Applied Science). For phosphoprotein analysis, Halt Phosphatase Inhibitor Cocktail (Pierce Technology) was also included. Cell lysate was cleared by centrifuge at 15,000 rpm for 30 min followed by addition of LDS sample buffer (Invitrogen) for direct analysis or immunoprecipitated with specific primary antibodies and Protein A/G agarose (Pierce Technology) following the manufacturer's protocol. […] The membrane was probed with specific primary antibodies according to specified recipes provided by their vendors and then horse radish peroxidase-conjugated secondary antibody to mouse or rabbit IgG (GE Healthcare, Piscataway, N.J.). Target protein bands were detected with SuperSignal West Femto Max Sensitivity Substrate (Pierce Technology)."}, "ERK/MAPK": {"test_system": "ERK/MAPK", "assay": "ERK/MAPK phosphorylation (western blot of cell lysates)", "assay_type": "cell-based", "method": "as §1, with “Cells were pretreated with 2 μM Iressa or DMSO for 30 minutes followed by 20 ng/ml Nrg1 or NGF and lysed after 5 minutes.” left out\nas §2"}, "PC12-ErbB4": {"test_system": "PC12-ErbB4", "assay": "Uptake of Alexa594-labeled Nrg1", "assay_type": "cell-based", "conditions": "K252a 50 nM 12 hrs, then Alexa594-labeled Nrg1 30 min, compared to DMSO-treated cells", "method": "(§3) A. Cells were treated without or with K252a (50 nM), K252a-Me (50 nM) for 30 min followed by treatment with or without 20 ng/mL Nrg1. Cells were lysed 12 hrs after Nrg1 treatment and analyzed by Western blot with anti-ErbB4 antibody. The bands that correspond to ErbB4 are indicated. B. Cells were treated without or with K252a (50 nM), K252a-Me (50 nM) for 12 hrs then fixed and immunostained with anti-ErbB4 and Alexa594 conjugated secondary antibody. GFP and Alexa594 fluorescent cell images were taken using a 20× objective. C. Cells were treated without or with K252a (50 nM) for 12 hrs followed by treatment of 20 ng/mL Alexa594-Nrg1 for 30 mins and fixed. GFP and Alexa594 fluorescent cell images were taken using a 40× objective.\n(§4) This phenomenon, confirmed by immunofluorescence staining for ErbB4 in PC12-ErbB4 (FIG. 7B), might explain why K252a potentiate Nrg1-induced neurite outgrowth. To verify that increased level of ErbB4 does contribute to neuregulin signaling, we examined the Nrg1 uptake with Alexa594-labeled Nrg1 (FIG. 7C). Cells were treated with K252a for 12 hrs followed by Alexa594-labeled Nrg1 for 30 min."}, "ErbB4 [4]": {"test_system": "ErbB4", "assay": "ErbB4 level (western blot, immunofluorescence staining)", "assay_type": "cell-based, human", "conditions": "50 nM, 12 hrs treatment, PC12-ErbB4", "method": "as §3, §4"}, "PC12-ErbB4-GFP cells [5]": {"test_system": "PC12-ErbB4-GFP cells", "assay": "NGF-induced neurite outgrowth, live-cell imaging", "assay_type": "cell-based"}, "NGF-TrkA signaling": {"test_system": "NGF-TrkA signaling", "conditions": "compared with K252a; cited from earlier work"}, "neurotrophin-3": {"test_system": "neurotrophin-3", "conditions": "cited from earlier work"}, "PFC pyramidal neuron": {"test_system": "PFC pyramidal neuron", "conditions": "PFC pyramidal neuron current assay; cited from earlier work"}, "[6]": {"test_system": "cultured hippocampal neurons", "conditions": "cited from earlier work"}}}
{"molecule": "COc1cc2ncnc(Nc3cccc(Cl)c3)c2cc1OC", "note": "[AG1478, 4-(3-Chloroanilino-6,7-dimethoxy)-quinazoline]", "values": [{"measurement": "effect on Nrg1-induced neurite outgrowth", "setting": "PC12-ErbB4-GFP cells [1]; 1 μM AG1478, 20 ng/ml Nrg1, 2 days", "result": "can specifically inhibit"}]}
{"molecule": "COc1cc2ncnc(Nc3ccc(F)c(Cl)c3)c2cc1OCCCN1CCOCC1", "note": "[Iressa, N-(3-chloro-4-fluoro-phenyl)-7-methoxy-6-(3-morpholin-4-ylpropoxy)quinazolin-4-amine]", "values": [{"measurement": "precipitation of ErbB4 by iTrap in competition with free Iressa", "setting": "ErbB4 [2]", "result": "attenuated"}, {"measurement": "phosphorylation of ErbB4 receptors induced by Nrg1", "setting": "ErbB4 [3]", "result": "inhibited"}, {"measurement": "subsequent phosphorylation of ERK/MAPK (Nrg1-induced)", "setting": "ERK/MAPK; 20 ng/ml Nrg1", "result": "diminished"}, {"measurement": "NGF-induced MAPK activation", "setting": "ERK/MAPK; Iressa, 20 ng/ml NGF", "result": "did not affect"}]}
{"molecule": "COC(=O)[C@@]1(O)C[C@H]2O[C@]1(C)n1c3ccccc3c3c4c(c5c6ccccc6n2c5c31)C(=O)NC4", "note": "[K252a, methyl (5R,6R,8R)-6-hydroxy-5-methyl-13-oxo-5,6,7,8,14,15-hexahydro-13H-5,8-epoxy-4b,8a,14-triazadibenzo[b,h]cycloocta[1,2,3,4-jkl]cyclopenta[e]-as-indacene-6-carboxylate]", "values": [{"measurement": "Nrg1 uptake", "setting": "PC12-ErbB4", "result": "significantly higher"}, {"measurement": "potentiation of Nrg1-induced neurite outgrowth", "setting": "PC12-ErbB4-GFP cells [1]; same concentration range (10 nM)", "result": "potentiated"}, {"measurement": "level of ErbB4", "setting": "ErbB4 [4]", "result": "significantly increased"}, {"measurement": "inhibition of NGF-induced neurite outgrowth", "setting": "PC12-ErbB4-GFP cells [5]; K252a at 10 nM", "result": "completely inhibited"}]}
{"molecule": "CC12OC(CC1(O)C(=O)O)n1c3ccccc3c3c4c(c5c6ccccc6n2c5c31)C(=O)NC4", "note": "(centres unmarked) [K252b]", "values": [{"measurement": "potency on inhibiting NGF-TrkA signaling", "setting": "NGF-TrkA signaling", "result": "much lower potency"}, {"measurement": "trophic action of neurotrophin-3", "setting": "neurotrophin-3", "result": "potentiates"}]}
{"molecule": "O=C1NCc2c1c1c3ccccc3[nH]c1c1[nH]c3ccccc3c21", "note": "[K252c]", "values": [{"measurement": "effect on Nrg1-induced neurite outgrowth in kinase inhibitor screening", "setting": "PC12-ErbB4-GFP cells [1]; single dose (10 micromolar), 48 hours", "result": "potentiates"}]}
{"molecule": "CNc1cc2c(Nc3cccc(Br)c3)ncnc2cn1", "note": "[PD158780]", "values": [{"measurement": "decrement in current caused by Nrg1", "setting": "PFC pyramidal neuron", "result": "reverses"}, {"measurement": "Nrg1 induced neurite outgrowth in cultured hippocampal neurons", "setting": "[6]", "result": "decreases"}]}
{"molecule": "C#Cc1cccc(Nc2ncnc3cc(OCCOC)c(OCCOC)cc23)c1", "note": "[Tarceva, N-(3-ethynylphenyl)-6,7-bis(2-methoxyethoxy)quinazolin-4-amine]", "values": [{"measurement": "IC50", "setting": "PC12-ErbB4-GFP cells [1]; read-out: IC50 of inhibition of Nrg1-induced neurite outgrowth", "result": 500, "unit": "nM"}, {"measurement": "inhibition of NGF-induced neurite outgrowth", "setting": "PC12-ErbB4-GFP cells [5]; concentration range of 100 nM˜1 (data not shown)", "result": "not inhibited"}]}
{"molecule": "NGF: Nerve Growth Factor, neurotrophin", "values": [{"measurement": "mean neurite length induced by NGF", "setting": "PC12-ErbB4-GFP cells [5]; 20 ng/ml, in the presence of DMSO, 48 hours", "result": "8.7±1.5", "unit": "μm"}]}
